Laboratory results published in patent publication US7393812B2, “Methylidene mevalonates and their use as herbicides” (Dow AgroSciences LLC, priority 2004, dated 2008).

Tests used:
Assay in all cases: Post-emergent evaluation
Type in all cases: in vivo
Settings in all cases: after 2 weeks
[1] = system: pigweed (Amaranthus spp., AMARE)
Experimental: (§1) Seeds of the desired test plant species were planted in Grace-Sierra MetroMix® 306 planting mixture, which typically has a pH of 6.0 to 6.8 and an organic matter content of about 30 percent, in plastic pots with a surface area of 64 square centimeters. When required to ensure good germination and healthy plants, a fungicide treatment and/or other chemical or physical treatment was applied. The plants were grown for 7-21 days in a greenhouse with an approximate 15 hr photoperiod which was maintained at about 23-29° C. during the day and 22-28° C. during the night. Nutrients and water were added on a regular basis and supplemental lighting was provided with overhead metal halide 1000-Watt lamps as necessary. The plants were employed for testing when they reached the first or second true leaf stage.
(§2) A weighed amount, determined by the highest rate to be tested, of each test compound was placed in a 20 mL glass vial and was dissolved in 4 mL of a 97:3 v/v (volume/volume) mixture of acetone and dimethyl sulfoxide (DMSO) to obtain concentrated stock solutions. […] The concentrated stock solutions obtained were diluted with an aqueous mixture containing acetone, water, isopropyl alcohol, DMSO, Atplus 411F crop oil concentrate, and Triton X-155 surfactant in a 48.5:39:10:1.5:1.0:0.02 v/v ratio to obtain spray solutions of known concentration. The solutions containing the highest concentration to be tested were prepared by diluting 2 mL aliquots of the stock solution with 13 mL of the mixture and lower concentrations were prepared by serial dilution of the stock solution. Approximately 1.5 mL aliquots of each solution of known concentration were sprayed evenly onto each of the test plant pots using a DeVilbiss atomizer driven by compressed air pressure of 2 to 4 psi ([…]) to obtain thorough coverage of each plant. Control plants were sprayed in the same manner with the aqueous mixture. In this test an application rate of 1 ppm results in the application of approximately 1 g/Ha.
(§3) The treated plants and control plants were placed in a greenhouse as described above and watered by sub-irrigation to prevent wash-off of the test compounds. After 2 weeks the condition of the test plants as compared with that of the untreated plants was determined visually and scored on a scale of 0 to 100 percent where 0 corresponds to no injury and 100 corresponds to complete kill. Species abbreviations as described for Table I with the following additions: soybean (Glycine max, GLXMA), rape (Brassica napus, BRSNN), chickweed (Stellaria media, STEME), cocklebur (Xanthium strumarium XANST), lambsquarters (Chenopodium album, CHEAL), violet (Viola tricolor, VIOTR), bindweed (Polygonum convolvulus, POLCO), spurge (Euphorbia heterophylla, EPHHL), Canada thistle (Cirsium arvense, CIRAR), corn (Zea mays, ZEAMX), rice (Oryza sativa, ORYSA), wheat (Triticum aestivum, TRZAS), crabgrass (Digitaria sanguinalis, DIGSA), shattercane (Sorghum vulgare, SORVU) and yellow nutsedge (Cyperus esculentus, CYPES).

[2] = system: lambsquarters (Chenopodium album, CHEAL)
Experimental: as §1, §2, §3

[3] = system: crabgrass (Digitaria sanguinalis, DIGSA)
Experimental: as §1, §2, §3
(§4) By applying the well-accepted probit analysis as described by J. Berkson in Journal of the American Statistical […], 48, 565 (1953) and by D. Finney in “Probit Analysis” Cambridge University Press (1952), similar data can be used to calculate GR80 values, which are defined as growth reduction factors that correspond to the effective dose of herbicide required to kill or control 80 percent of a target plant. Species abbreviations are as previously defined.

[4] = system: yellow nutsedge (Cyperus esculentus, CYPES)
Experimental: as §1, §2, §3, §4

[5] = system: morningglory (Ipomoea hederacea, IPOHE)
Experimental: as §1, §2
as §3, with “After 2 weeks the condition of the test plants as compared with that of the untreated plants was determined visually and scored on a scale of 0 to 100 percent where 0 corresponds to no injury and 100 corresponds to complete kill.” left out
as §4

[6] = system: violet (Viola tricolor, VIOTR)
Experimental: as §1, §2
as §3, with “After 2 weeks the condition of the test plants as compared with that of the untreated plants was determined visually and scored on a scale of 0 to 100 percent where 0 corresponds to no injury and 100 corresponds to complete kill.” left out
as §4

[7] = system: giant foxtail (Setaria faberi, SETFA)
Experimental: as §1, §2
as §3, with “After 2 weeks the condition of the test plants as compared with that of the untreated plants was determined visually and scored on a scale of 0 to 100 percent where 0 corresponds to no injury and 100 corresponds to complete kill.” left out
as §4

[8] = system: velvetleaf (Abutilon theophrasti, ABUTH)
Experimental: as §1, §2
as §3, with “After 2 weeks the condition of the test plants as compared with that of the untreated plants was determined visually and scored on a scale of 0 to 100 percent where 0 corresponds to no injury and 100 corresponds to complete kill.” left out
as §4

[9] = system: chickweed (Stellaria media, STEME)
Experimental: as §1, §2
as §3, with “After 2 weeks the condition of the test plants as compared with that of the untreated plants was determined visually and scored on a scale of 0 to 100 percent where 0 corresponds to no injury and 100 corresponds to complete kill.” left out
as §4

[10] = system: barnyardgrass (Echinochloa crusgalli, ECHCG)
Experimental: as §1, §2
as §3, with “After 2 weeks the condition of the test plants as compared with that of the untreated plants was determined visually and scored on a scale of 0 to 100 percent where 0 corresponds to no injury and 100 corresponds to complete kill.” left out
as §4

[11] = system: shattercane (Sorghum vulgare, SORVU)
Experimental: as §1, §2
as §3, with “After 2 weeks the condition of the test plants as compared with that of the untreated plants was determined visually and scored on a scale of 0 to 100 percent where 0 corresponds to no injury and 100 corresponds to complete kill.” left out
as §4

## C=C(CO)C(C)(O)CC(=O)O (stereo not shown) [methylidene mevalonate, 3-hydroxy-4-(hydroxymethyl)-3-methylpent-4-enoic acid]
[1]; spray concentration 125 ppm
  Postemergent % Control: 10%
[1]; spray concentration 250 ppm
  Postemergent % Control: 30%
[1]; spray concentration 500 ppm
  Postemergent % Control: 100%
[1]; spray concentration 1000 ppm
  Postemergent % Control: 100%
[1]; spray concentration 2000 ppm
  Postemergent % Control: 100%
[2]; spray concentration 125 ppm
  Postemergent % Control: 0%
[2]; spray concentration 250 ppm
  Postemergent % Control: 0%
[2]; spray concentration 500 ppm
  Postemergent % Control: 10%
[2]; spray concentration 1000 ppm
  Postemergent % Control: 50%
[2]; spray concentration 2000 ppm
  Postemergent % Control: 80%
[3]; spray concentration 125 ppm
  Postemergent % Control: 0%
[3]; spray concentration 250 ppm
  Postemergent % Control: 10%
[3]; spray concentration 500 ppm
  Postemergent % Control: 50%
[3]; spray concentration 1000 ppm
  Postemergent % Control: 70%
[3]; spray concentration 2000 ppm
  Postemergent % Control: 80%
[4]; spray concentration 125 ppm
  Postemergent % Control: 30%
[4]; spray concentration 250 ppm
  Postemergent % Control: 70%
[4]; spray concentration 500 ppm
  Postemergent % Control: 90%
[4]; spray concentration 1000 ppm
  Postemergent % Control: 95%
[4]; spray concentration 2000 ppm
  Postemergent % Control: 95%
[5]; spray concentration 125 ppm
  Postemergent % Control: 40%
[5]; spray concentration 250 ppm
  Postemergent % Control: 50%
[5]; spray concentration 500 ppm
  Postemergent % Control: 70%
[5]; spray concentration 1000 ppm
  Postemergent % Control: 80%
[5]; spray concentration 2000 ppm
  Postemergent % Control: 80%
[6]; spray concentration 125 ppm
  Postemergent % Control: 0%
[6]; spray concentration 250 ppm
  Postemergent % Control: 0%
[6]; spray concentration 500 ppm
  Postemergent % Control: 0%
[6]; spray concentration 1000 ppm
  Postemergent % Control: 25%
[6]; spray concentration 2000 ppm
  Postemergent % Control: 30%
[7]; spray concentration 125 ppm
  Postemergent % Control: 30%
[7]; spray concentration 250 ppm
  Postemergent % Control: 70%
[7]; spray concentration 500 ppm
  Postemergent % Control: 70%
[7]; spray concentration 1000 ppm
  Postemergent % Control: 80%
[7]; spray concentration 2000 ppm
  Postemergent % Control: 90%
[8]; spray concentration 125 ppm
  Postemergent % Control: 0%
[8]; spray concentration 250 ppm
  Postemergent % Control: 5%
[8]; spray concentration 500 ppm
  Postemergent % Control: 20%
[8]; spray concentration 1000 ppm
  Postemergent % Control: 50%
[8]; spray concentration 2000 ppm
  Postemergent % Control: 60%
[9]; spray concentration 125 ppm
  Postemergent % Control: 0%
[9]; spray concentration 250 ppm
  Postemergent % Control: 0%
[9]; spray concentration 500 ppm
  Postemergent % Control: 0%
[9]; spray concentration 1000 ppm
  Postemergent % Control: 20%
[9]; spray concentration 2000 ppm
  Postemergent % Control: 40%
[10]; spray concentration 125 ppm
  Postemergent % Control: 40%
[10]; spray concentration 250 ppm
  Postemergent % Control: 85%
[10]; spray concentration 500 ppm
  Postemergent % Control: 95%
[10]; spray concentration 1000 ppm
  Postemergent % Control: 95%
[10]; spray concentration 2000 ppm
  Postemergent % Control: 100%
[11]; spray concentration 125 ppm
  Postemergent % Control: 0%
[11]; spray concentration 250 ppm
  Postemergent % Control: 50%
[11]; spray concentration 500 ppm
  Postemergent % Control: 90%
[11]; spray concentration 1000 ppm
  Postemergent % Control: 90%
[11]; spray concentration 2000 ppm
  Postemergent % Control: 90%
